Target: DNA-dependent protein kinase catalytic subunit (Homo sapiens, UniProt P78527)
Assay: Inhibition of DNA-PK Kinase
Method: IC50 was calculated using GraphPad Prism 8.

Chain of DNA-dependent protein kinase catalytic subunit (P78527 whole entry): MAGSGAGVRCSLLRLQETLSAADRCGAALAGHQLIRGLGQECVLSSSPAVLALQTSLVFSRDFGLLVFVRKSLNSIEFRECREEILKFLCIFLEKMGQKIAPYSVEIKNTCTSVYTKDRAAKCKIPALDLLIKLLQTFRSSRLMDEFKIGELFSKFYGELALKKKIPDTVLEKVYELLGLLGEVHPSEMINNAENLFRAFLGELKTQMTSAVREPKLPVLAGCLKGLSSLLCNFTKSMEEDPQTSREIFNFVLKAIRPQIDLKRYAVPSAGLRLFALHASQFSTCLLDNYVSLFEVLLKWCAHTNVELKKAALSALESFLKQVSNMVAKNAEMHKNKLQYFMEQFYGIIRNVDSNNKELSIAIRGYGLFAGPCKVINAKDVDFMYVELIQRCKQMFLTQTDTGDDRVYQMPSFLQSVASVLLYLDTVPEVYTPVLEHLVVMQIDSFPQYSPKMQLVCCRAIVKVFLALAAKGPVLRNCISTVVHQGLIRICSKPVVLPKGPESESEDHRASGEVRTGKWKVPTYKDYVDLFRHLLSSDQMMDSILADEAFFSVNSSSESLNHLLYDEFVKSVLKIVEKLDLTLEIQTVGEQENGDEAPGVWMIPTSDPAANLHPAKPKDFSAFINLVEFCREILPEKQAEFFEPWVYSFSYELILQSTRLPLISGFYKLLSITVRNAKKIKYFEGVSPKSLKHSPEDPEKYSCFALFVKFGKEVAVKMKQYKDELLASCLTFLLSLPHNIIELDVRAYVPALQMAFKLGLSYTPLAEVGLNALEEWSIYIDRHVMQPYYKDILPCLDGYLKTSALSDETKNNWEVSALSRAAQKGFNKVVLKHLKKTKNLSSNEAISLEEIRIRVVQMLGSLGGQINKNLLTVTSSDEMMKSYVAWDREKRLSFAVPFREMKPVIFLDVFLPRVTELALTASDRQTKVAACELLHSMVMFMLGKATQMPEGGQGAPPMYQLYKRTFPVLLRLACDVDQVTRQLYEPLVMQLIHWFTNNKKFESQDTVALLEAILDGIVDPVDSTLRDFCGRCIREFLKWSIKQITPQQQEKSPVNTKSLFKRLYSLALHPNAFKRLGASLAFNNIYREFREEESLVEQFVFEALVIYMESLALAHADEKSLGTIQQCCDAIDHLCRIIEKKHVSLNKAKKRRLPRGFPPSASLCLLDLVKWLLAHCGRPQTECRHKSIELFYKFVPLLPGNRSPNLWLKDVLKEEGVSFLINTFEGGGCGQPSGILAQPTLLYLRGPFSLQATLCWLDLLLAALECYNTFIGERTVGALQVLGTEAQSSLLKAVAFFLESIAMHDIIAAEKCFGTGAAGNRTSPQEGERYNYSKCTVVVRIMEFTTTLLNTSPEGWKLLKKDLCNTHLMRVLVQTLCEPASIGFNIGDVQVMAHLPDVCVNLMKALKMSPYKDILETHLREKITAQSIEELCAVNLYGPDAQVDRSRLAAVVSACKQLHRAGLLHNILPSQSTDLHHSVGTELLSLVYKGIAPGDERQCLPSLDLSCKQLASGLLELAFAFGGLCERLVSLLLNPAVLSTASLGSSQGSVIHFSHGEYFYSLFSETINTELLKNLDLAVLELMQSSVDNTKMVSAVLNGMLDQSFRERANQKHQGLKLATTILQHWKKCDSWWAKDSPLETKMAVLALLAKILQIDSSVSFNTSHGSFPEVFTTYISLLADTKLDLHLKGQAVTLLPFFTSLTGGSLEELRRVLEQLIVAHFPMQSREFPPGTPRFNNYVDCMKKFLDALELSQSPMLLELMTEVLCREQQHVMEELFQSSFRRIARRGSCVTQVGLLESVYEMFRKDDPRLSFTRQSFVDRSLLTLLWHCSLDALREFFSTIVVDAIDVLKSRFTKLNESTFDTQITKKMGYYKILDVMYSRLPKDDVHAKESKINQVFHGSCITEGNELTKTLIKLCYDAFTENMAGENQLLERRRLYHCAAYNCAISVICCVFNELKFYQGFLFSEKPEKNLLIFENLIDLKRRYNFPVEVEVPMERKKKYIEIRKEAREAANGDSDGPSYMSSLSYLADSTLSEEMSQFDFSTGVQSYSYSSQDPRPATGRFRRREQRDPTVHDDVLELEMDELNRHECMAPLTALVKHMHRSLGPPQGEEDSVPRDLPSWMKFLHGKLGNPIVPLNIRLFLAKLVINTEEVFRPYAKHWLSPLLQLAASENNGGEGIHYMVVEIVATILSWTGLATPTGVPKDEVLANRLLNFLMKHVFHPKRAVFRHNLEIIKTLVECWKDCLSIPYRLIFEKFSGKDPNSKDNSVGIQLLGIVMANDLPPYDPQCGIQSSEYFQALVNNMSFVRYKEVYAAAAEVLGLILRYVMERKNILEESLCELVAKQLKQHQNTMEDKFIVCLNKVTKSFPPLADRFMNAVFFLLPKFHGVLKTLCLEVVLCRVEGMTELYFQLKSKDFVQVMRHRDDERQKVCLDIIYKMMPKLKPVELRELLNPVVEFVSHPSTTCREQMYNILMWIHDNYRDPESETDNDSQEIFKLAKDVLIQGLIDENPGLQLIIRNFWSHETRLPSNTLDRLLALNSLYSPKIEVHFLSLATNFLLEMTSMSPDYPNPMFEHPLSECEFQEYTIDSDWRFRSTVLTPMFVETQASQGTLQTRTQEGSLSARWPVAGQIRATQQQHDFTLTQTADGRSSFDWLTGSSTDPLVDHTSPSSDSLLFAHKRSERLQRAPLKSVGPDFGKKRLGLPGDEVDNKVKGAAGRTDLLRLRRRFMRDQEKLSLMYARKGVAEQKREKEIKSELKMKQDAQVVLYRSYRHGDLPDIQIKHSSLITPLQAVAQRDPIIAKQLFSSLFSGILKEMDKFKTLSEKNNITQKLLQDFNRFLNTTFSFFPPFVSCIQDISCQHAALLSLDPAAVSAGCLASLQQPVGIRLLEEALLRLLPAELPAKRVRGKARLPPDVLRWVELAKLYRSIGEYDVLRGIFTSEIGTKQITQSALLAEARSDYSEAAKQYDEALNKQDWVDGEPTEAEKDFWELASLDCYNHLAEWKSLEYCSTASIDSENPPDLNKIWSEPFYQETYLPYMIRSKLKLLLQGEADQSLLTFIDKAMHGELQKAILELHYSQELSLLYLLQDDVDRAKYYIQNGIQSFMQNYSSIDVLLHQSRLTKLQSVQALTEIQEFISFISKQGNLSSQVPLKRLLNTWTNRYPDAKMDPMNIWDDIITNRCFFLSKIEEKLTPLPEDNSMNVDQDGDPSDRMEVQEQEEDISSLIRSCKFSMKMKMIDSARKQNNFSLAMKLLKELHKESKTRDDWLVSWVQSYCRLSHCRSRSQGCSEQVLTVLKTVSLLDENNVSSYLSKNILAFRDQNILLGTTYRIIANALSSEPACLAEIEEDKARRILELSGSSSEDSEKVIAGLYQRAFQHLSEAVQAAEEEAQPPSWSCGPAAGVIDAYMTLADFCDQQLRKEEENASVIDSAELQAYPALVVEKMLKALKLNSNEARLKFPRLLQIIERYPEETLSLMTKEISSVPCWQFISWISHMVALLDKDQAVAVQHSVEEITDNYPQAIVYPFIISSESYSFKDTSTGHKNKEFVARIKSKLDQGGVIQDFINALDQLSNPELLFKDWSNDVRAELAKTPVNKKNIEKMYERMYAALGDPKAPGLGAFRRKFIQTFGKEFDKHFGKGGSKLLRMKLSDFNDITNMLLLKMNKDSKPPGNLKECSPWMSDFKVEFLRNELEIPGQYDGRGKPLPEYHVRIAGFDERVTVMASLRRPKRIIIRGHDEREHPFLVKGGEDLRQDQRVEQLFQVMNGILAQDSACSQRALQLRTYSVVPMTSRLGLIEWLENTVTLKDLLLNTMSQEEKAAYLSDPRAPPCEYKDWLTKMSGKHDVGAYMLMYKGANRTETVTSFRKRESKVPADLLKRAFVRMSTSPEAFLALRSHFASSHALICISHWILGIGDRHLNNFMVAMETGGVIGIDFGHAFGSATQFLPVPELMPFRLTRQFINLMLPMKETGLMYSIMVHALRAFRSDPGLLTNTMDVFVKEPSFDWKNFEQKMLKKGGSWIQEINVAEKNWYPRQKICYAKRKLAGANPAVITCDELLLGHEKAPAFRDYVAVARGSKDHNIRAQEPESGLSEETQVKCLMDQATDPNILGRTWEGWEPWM

Row | Structure (SMILES) | IC50
1 | Cc1cc2ncnn2cc1Nc1ncc2c(n1)n(C1C3CC4CC1CC(O)(C4)C3)c(=O)n2C (centres undefined) [US12552793, Compound 16-2] | 2.49 nM
2 | [2H]C1(O)C2CC3CC1CC(n1c(=O)n(C)c4cnc(Nc5cc(F)c(C(N)=O)cc5C)nc41)(C3)C2 (centres undefined) [US12552793, Compound 23-1] | 2.84 nM
3 | Cc1cc(C(N)=O)c(F)cc1Nc1ncc2c(n1)n(C13CC4CC(C1)C(O)C(C4)C3)c(=O)n2C (centres undefined) [US12552793, Compound 17-2] | 2.2 nM
4 | [2H]C1(O)C2CC3CC1CC(n1c(=O)n(C)c4cnc(Nc5cn6ncnc6cc5C)nc41)(C3)C2 (centres undefined) [US12552793, Compound 20-2] | 1.1 nM

Molecules with a lower IC50, results first:

Row | IC50 | Structure (SMILES)
5 | 0.01 nM | Cc1cc(C(N)=O)c(F)cc1Nc1ncc2c(n1)n(C13CC4CC(C1)C(O)C(C4)C3)c(=O)n2C (centres undefined) [US12552793, Compound 17-1]
6 | 0.03 nM | [2H]C1(O)C2CC3CC1CC(n1c(=O)n(C)c4cnc(Nc5cn6ncnc6cc5C)nc41)(C3)C2 (centres undefined) [US12552793, Compound 20-1]
7 | 0.52 nM | Cc1cc2ncnn2cc1Nc1ncc2c(n1)n(C1C3CC4CC1CC(O)(C4)C3)c(=O)n2C (centres undefined) [US12552793, Compound 16-1]
8 | 0.01 nM | COC1(OC)C2CC3CC1CC(n1c(=O)n(C)c4cnc(Nc5cc(F)c(C(N)=O)cc5C)nc41)(C3)C2 [US12552793, Compound 26]
9 | 0.85 nM | [2H]C1(O)C2CC3CC1CC(n1c(=O)n(C)c4cnc(Nc5cc(F)c(C(N)=O)cc5C)nc41)(C3)C2 (centres undefined) [US12552793, Compound 23-2]
